These results are taken from patent publication US8383655B2, “Modulators of pharmacokinetic properties of therapeutics” (Gilead Sciences, Inc., priority 2006, dated 2013).

This experiment relates to HIV-1 strain IIIB. In words: Anti-HIV-1 cell culture assay (EC50), XTT cytopathic effect. The class given is cell-based. Particulars: Human immunodeficiency virus 1, 120 h; MT2 cells infected with wild-type HIV-1 IIIB, 5 days; read-out: protease inhibition activity represented by HIV EC50. On the technique in general: Formazan colour is commonly taken as a measure of viable cells.

Method: The assay is based on quantification of the HIV-1-associated cytopathic effect by a colorimetric detection of the viability of virus-infected cells in the presence or absence of tested inhibitors. HIV-1-induced cell death was determined using a metabolic substrate 2,3-bis(2-methoxy-4-nitro-5-sulfophenyl)-2H-tetrazolium-5-carboxanilide (XTT) which is converted only by intact cells into a product with specific absorption characteristics as described by Weislow O S, Kiser R, Fine D L, Bader J, Shoemaker R H and Boyd M R, J. Natl. Cancer Inst.
The infected cells in culture media were distributed into a 96-well plate (20,000 cells in 100 μl/well), and incubated in the presence of a set of solutions containing 5-fold serial dilutions of the tested inhibitor (100 μl/well) for 5 days at 37° C. […]
To determine the antiviral activity of the tested inhibitors, a substrate XTT solution (6 mL per assay plate) at a concentration of 2 mg/mL in a phosphate-buffered saline pH 7.4 was heated in water-bath for 5 min at 55° C. before 50 μl of N-methylphenazonium methasulfate (5 μg/mL) was added per 6 mL of XTT solution. […] Viability, as determined by the amount of XTT metabolites produced, was quantified spectrophotometrically by the absorbance at 450 nm (with subtraction of the background absorbance at 650 nm).

As to `CC(C)c1nc(CN(C)C(=O)N[C@@H](CCN2CCOCC2)C(=O)N[C@H](CC[C@H](Cc2ccccc2)NC(=O)OCc2cncs2)Cc2ccccc2)cs1` [Example S], the EC50 (usually the concentration at which the effect is half-maximal) was > 20 µM.
